Measured values as given in patent US20110165649A1, “METHODS AND COMPOSITIONS TO IMPROVE THE HEALTH OF PLANTS, ANIMALS AND MICROBES BY MANIPULATING PROTEIN ENTRY INTO SYMBIONTS AND THEIR HOSTS” (priority 2010, published 2011).
Entries after “also recorded” stand apart in the source; their conditions may differ.

What was measured:
P. sojae hyphae = assay: Binding and entry of fluorescent lipid-binding fusion proteins, P. sojae hyphae, confocal microscopy; format: cell-based, Phytophthora sojae
Procedure: A, Phosphatidylinositol-4-phosphate (PI-4-P) on the surface of P. sojae membranes mediates selective protein entry. Phosphatidylinositol-4-phosphate adaptor protein-1 (FAPP1)-mCherry, FAPP1-GFP, mCHerry alone or phosphatidylinositol-3-phosphate-binding PH-domain protein-1 (PEPP1)-GFP proteins (1 mg/ml) were incubated together with P. sojae hyphae for 12 hr, then washed extensively. Left panels show fluorescence image; right panels show the matching light micrograph.
To test for the presence of PI-3-P and PI-4-P on P. sojae hyphae, and the ability of those phosphoinositides to carry binding proteins into the hyphae, the pleckstrin-homology (PH) domains of the human proteins phosphatidylinositol-3-phosphate-binding PH-domain protein-1 (PEPP1) and phosphatidylinositol-4-phosphate adaptor protein-1 (FAPP1), respectively, were utilized (Dowler et al., 2000). […] To create biosensors capable of detecting PI-3P and PI-4-P in vivo, the PH domain of PEPP1 was fused to green fluorescent protein (GFP) and the PH domain of FAPP1 was fused to the modified red fluorescent protein, mCherry. (Sequences of the nucleic acids used for the production of these proteins, and the amino acid sequences corresponding to the same, are presented in FIGS. 6 A and B ([…]) and FIGS. 7 A and B (GST-FAPP1-mCherry. PEPP1-GFP and FAPP1-mCherry proteins (1 mg/ml in 25 mM 2-(N-morpholino)ethanesulfonic acid (MES) pH 5.8) were incubated with P. sojae hyphae for 6 hr at 25° C. then washed for 30 min with 25 mM MES pH 5.8, before being photographed using a Zeiss LSM510 laser scanning confocal microscope with an argon laser excitation wavelength of 488 nm for GFP or with a HeNe laser at a wavelength of 543 nm for mCherry.

[1] = test system: soybean root suspension culture cells / soybean root tips; assay: Binding and entry of fluorescent lipid-binding fusion proteins, soybean root cells; format: cell-based; conditions: 1 mg/ml in 25 mM MES pH 5.8, 4° C., suspension culture cells 6 hr or root tips 12 hr
Procedure: B, Detection of PI-3-P but not PI-4-P on the surface of soybean cells. PEPP1-GFP or FAPP1-GFP proteins (1 mg/ml in 25 mM MES pH 5.8) were incubated with soybean root suspension culture cells for 6 hr or with soybean root tips for 12 hr at 4° C. then washed for 2 hr with 25 mM MES pH 5.8, then plasmolyzed with 0.8M Mannitol (suspension culture cells) or 4M NaCl (roots) for 30 minutes, before being photographed. Left panels show fluorescence image; right panels show the matching light micrograph. Plasma membranes are indicated by the white arrow heads.

[2] = test system: Human lung adenocarcinoma cells A549; assay: Binding and entry of fluorescent lipid-binding fusion proteins, human lung cells; format: cell-based; conditions: 1 mg/ml in DPBS
Procedure: C, Detection of PI-3-P but not PI-4-P on the surface of human lung cells PEPP1-mCherry or FAPP1-mCherry proteins [1 mg/ml in Dulbecco's Phosphate Buffer Saline (Ca^+2/Mg^+2 free) (DPBS; Gibco)] were incubated with Human lung adenocarcinoma cells A549 (ATCC CCL-185) for 8 hr at 4° C. or 37° C. then washed twice briefly with DPBS, before being photographed. Left panels show fluorescence image; right panels show the matching light micrograph. […] FIGS. 1B and C were adapted from FIGS. 3 and 5 respectively from Kale et al 2010. External lipid PI-3-P mediates entry of eukaryotic pathogen effectors into plant and animal host cells. Cell 142:284-295.

[3] = 1 mg/ml in 25 mM MES pH 5.8, 6 hr at 25° C., confocal microscopy
[4] = hyphae stained simultaneously with PEPP1-GFP and FAPP1-mCherry

In the case of “FAPP1-mCherry: PH domain of human FAPP1 (PI-4-P-binding) fused to the modified red fluorescent protein mCherry; SEQ ID NO: 8”, the “binding to the membrane of P. sojae hyphae” value (P. sojae hyphae; [3]) is reported as “bound to the membrane of P. sojae hyphae”, the “entry into P. sojae hyphae” value (P. sojae hyphae; [3]) is reported as “entered into the cells in abundance; also recorded: entered P. sojae hyphae” and the “cellular entry, P. sojae hyphae” value (P. sojae hyphae; [4]) is reported as “cellular entry”. For the same substance, the “membrane binding, P. sojae hyphae” value (P. sojae hyphae; [4]) was “strong membrane binding”, the “entry into soybean cells” value [1] was “not” and the “binding to the surface of soybean cells” value ([1]; plasmolyzed) was “not”. For the same substance, the “binding to the surface of human A549 cells” value ([2]; 8 hr at 4° C. (endocytosis inhibited)) was “not and neither binds to the surface of the cells and does neither” and the “entry into human A549 cells” value ([2]; 8 hr at 37° C. (endocytosis active)) was “not and nor enters the cells and does neither”.
